The text below walks through data of paper PMC6650409, “Modeling the binding of diverse ligands within the Ah receptor ligand binding domain” (Scientific Reports, 2019).

Structures are written as SMILES. Where a chain is given by its changes, count along the chain named.

One assay concerns the target T1, H331A mutant AhR (Mus musculus, UniProt P30561, H331A).
T1 construct: made in house; host or cells: in vitro, Promega TNT Quick rabbit reticulocyte lysate
T1 sequence (P30561 10-848 H331A): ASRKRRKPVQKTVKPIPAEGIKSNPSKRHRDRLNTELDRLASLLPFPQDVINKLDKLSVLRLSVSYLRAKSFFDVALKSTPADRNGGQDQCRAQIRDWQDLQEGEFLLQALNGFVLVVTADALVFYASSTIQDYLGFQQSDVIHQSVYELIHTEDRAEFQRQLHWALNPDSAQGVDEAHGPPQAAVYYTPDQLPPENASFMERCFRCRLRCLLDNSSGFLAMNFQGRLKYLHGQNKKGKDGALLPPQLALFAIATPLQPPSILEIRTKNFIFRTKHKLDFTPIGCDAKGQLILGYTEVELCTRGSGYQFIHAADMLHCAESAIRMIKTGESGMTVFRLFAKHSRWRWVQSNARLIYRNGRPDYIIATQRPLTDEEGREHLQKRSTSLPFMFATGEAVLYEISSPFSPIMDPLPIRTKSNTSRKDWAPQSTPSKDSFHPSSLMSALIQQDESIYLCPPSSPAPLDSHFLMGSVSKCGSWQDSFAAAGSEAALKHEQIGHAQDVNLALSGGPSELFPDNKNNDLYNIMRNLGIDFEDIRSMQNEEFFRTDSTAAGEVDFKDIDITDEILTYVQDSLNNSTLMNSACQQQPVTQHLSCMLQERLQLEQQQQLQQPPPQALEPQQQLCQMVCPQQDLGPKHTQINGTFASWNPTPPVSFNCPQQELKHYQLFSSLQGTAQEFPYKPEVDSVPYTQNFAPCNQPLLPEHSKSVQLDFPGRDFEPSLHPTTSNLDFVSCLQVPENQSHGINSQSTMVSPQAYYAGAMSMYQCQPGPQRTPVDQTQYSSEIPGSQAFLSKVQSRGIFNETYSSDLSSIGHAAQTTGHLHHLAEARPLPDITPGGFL
As to the kind of experiment: [3H]TCDD competitive ligand binding, H331A mutant AhR. As to the method: The mouse AhR (mAhR) and ARNT (mARNT) expression plasmids, mβAhR/pcDNA3 and mβArnt/pcDNA3, have been previously described. Point mutations of mβAhR/pcDNA3 were carried out using the QuikChange Lightning Mutagenesis Kit (Agilent Technologies) and all constructs were verified by sequencing.
[^3H]TCDD specific binding to wild-type or mutant mAhRs synthesized in vitro using the Promega TNT Quick coupled transcription/translation rabbit reticulocyte lysate kit (Madison, WI) was carried out as previously described. [^3H]TCDD specific binding was determined by subtracting the amount of [^3H]TCDD bound to unprogrammed lysate (nonspecific binding) from the total amount of [^3H]TCDD binding to lysate containing in vitro expressed AhR. The amount of [^3H]TCDD specific binding remaining in the presence of the indicated competitor chemical was expressed as a percent of the total [^3H]TCDD specific binding. The relative binding affinity (IC50) of each chemical was determined from concentration-dependent competitive inhibition curves obtained using [^3H]TCDD and increasing concentrations of each test chemical and the mean IC50 value was determined using three-parameter non-linear regression.

Another assay concerns the target T2, C327A mutant AhR (Mus musculus, UniProt P30561, C327A).
T2 construct: made in house; host or cells: in vitro, Promega TNT Quick rabbit reticulocyte lysate
T2 sequence (P30561 10-848 C327A): T1 sequence (P30561 10-848 H331A) with C318A, A322H
The arrangement: method as in PMID 21981577. The conditions noted are these: C327A mutation; cited from earlier work.

Usually IC50 stands for the midpoint of a concentration-inhibition curve. The low end stands for inhibition by little substance, the high end for a need for much substance. For `Cc1ccc2cc3c(ccc4ccccc43)c3c2c1CC3` [3MC, 3-methylcholanthrene], the “change of relative binding affinity versus wild-type AhR” value at H331A mutant AhR (H331A mutation, in words) was “dramatically increased”. Further, the IC50 on H331A mutant AhR (Table S6, AhR mutant H331A) was found to be 0.141 nM.

`Clc1cc2c(cc1Cl)Oc1cc(Cl)c(Cl)cc1O2` [TCDD, 2,3,7,8-tetrachlorodibenzo-p-dioxin]: the TCDD binding activity result at C327A mutant AhR is on record as “only partially affected”.
